Reference: ChEMBL document CHEMBL5543077, “A further pocket or conformational plasticity by mapping COX-1 catalytic site through modified-mofezolac structure-inhibitory activity relationships and their antiplatelet behavior” (Eur J Med Chem, 2024)

How the values were obtained:
[1] = molecular target: T1, Prostaglandin G/H synthase 1 (Ovis aries, UniProt P05979)
T1 sequence (P05979 whole entry): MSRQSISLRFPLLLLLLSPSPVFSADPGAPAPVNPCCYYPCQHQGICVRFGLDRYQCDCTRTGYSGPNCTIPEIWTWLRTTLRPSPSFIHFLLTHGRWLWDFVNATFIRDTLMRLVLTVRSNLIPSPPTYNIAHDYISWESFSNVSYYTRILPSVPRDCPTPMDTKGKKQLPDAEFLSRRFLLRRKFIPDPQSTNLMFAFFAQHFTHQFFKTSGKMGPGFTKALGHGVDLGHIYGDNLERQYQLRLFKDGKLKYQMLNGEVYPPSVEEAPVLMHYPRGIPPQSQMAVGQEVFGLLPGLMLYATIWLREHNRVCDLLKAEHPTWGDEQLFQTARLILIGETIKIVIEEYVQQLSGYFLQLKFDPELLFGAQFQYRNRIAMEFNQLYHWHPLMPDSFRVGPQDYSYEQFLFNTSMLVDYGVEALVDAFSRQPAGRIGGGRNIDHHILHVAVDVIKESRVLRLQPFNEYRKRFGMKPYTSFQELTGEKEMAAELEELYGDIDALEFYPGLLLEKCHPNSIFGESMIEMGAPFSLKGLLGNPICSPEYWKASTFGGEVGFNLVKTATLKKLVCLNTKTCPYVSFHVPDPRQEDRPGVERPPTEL
Description: Inhibition of ovine COX-1

[2] = molecular target: T2, Prostaglandin G/H synthase 2 (Homo sapiens, UniProt P35354)
T2 sequence (P35354 whole entry): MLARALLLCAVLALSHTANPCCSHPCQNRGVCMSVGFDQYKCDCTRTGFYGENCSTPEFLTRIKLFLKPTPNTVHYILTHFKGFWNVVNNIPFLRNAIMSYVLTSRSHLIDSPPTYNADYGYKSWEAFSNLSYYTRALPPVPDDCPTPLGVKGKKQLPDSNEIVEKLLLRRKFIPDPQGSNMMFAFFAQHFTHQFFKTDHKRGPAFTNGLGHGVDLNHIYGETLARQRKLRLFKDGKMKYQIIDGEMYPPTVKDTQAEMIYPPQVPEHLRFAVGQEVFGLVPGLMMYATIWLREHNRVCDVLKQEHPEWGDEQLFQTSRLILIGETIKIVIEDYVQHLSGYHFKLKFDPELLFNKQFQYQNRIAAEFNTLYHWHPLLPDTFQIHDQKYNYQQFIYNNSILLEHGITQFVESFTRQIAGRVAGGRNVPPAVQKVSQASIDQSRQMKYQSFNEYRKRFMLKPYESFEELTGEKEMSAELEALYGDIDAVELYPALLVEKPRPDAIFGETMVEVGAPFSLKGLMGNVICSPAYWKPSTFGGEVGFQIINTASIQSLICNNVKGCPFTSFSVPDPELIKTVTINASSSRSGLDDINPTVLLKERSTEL

[3] = molecular target: T1, Prostaglandin G/H synthase 1; remark: listed apart in the source
Description: Inhibition of ovine COX-1 by colorimetric assay

[4] = molecular target: T2, Prostaglandin G/H synthase 2; remark: listed apart in the source
Description: Inhibition of human COX-2 by colorimetric assay

[5] = molecular target: T2, Prostaglandin G/H synthase 2; remark: listed apart in the source
Description: Inhibition of recombinant human COX-2 measured after 5 mins by absorbance based analysis

Platelet = test: cells; assay type: functional, cell-based; conditions: Homo sapiens, 2 min
Description: Antiplatelet activity in human platelets assessed as inhibition of arachidonic acid-induced platelet aggregation measured after 2 mins by turbidimetric analysis

in vitro [6] = conditions: chlorocebus sabaeus, vero
Description: Cytotoxicity against African green monkey Vero cells assessed as cell viability at 100 uM measured after 24 hrs by MTT assay relative to control

in vitro [7] = conditions: human, erythrocyte
Description: Hemolytic activity in human red blood cells assessed as hemolysis at 100 uM measured after 3 hrs by microplate reader assay relative to control

[8] = molecular target: T1, Prostaglandin G/H synthase 1; remark: listed apart in the source
Description: Inhibition of ovine COX-1 measured after 5 mins by absorbance based analysis

| SMILES | IC50 [3] | IC50 [4] | further results |
| --- | --- | --- | --- |
| CCc1onc(-c2ccccc2)c1-c1ccccc1 | – | – | IC50 [1]: 0.05 µM; IC50 [2]: > 1.49 µM |
| Cc1onc(-c2ccc(Cl)o2)c1-c1ccccc1 | – | – | IC50 [2]: > 100 µM |
| Cc1onc(-c2ccccc2)c1-c1ccccc1 | – | – | IC50 [1]: 0.09 µM |
| Cc1onc(-c2ccc(OCc3ccccc3)cc2)c1-c1ccc(OCc2ccccc2)cc1 | > 50 µM | > 50 µM | – |
| CCCCOc1ccc(-c2c(-c3ccc(OC)cc3)noc2C)cc1 | > 50 µM | > 50 µM | – |
| C=CCc1cccc(-c2nc(-c3ccccc3Cl)c(-c3ccccc3Cl)[nH]2)c1OC(=O)COC | – | – | IC50 [5]: > 100 µM |
| O=C(O)Cc1onc(-c2ccc(OCc3ccccc3)cc2)c1-c1ccc(OCc2ccccc2)cc1 | > 50 µM | > 50 µM | – |
| O=C(O)Cc1onc(-c2ccc(Oc3ccccc3)cc2)c1-c1ccc(Oc2ccccc2)cc1 | > 50 µM | > 50 µM | – |
| CCCCOc1ccc(-c2noc(CC(=O)O)c2-c2ccc(OCCCC)cc2)cc1 | 0.053 µM | > 50 µM | IC50 (Platelet): > 100 µM; viability at 24 h, 100 µM (in vitro [6]): > 70%; hemolysis at 3 h, 100 µM (in vitro [7]): 0% |
| CCCCOc1ccc(-c2noc(C)c2-c2ccc(OCCCC)cc2)cc1 | > 50 µM | > 50 µM | – |
| CCOc1ccc(-c2noc(C)c2-c2ccc(OCC)cc2)cc1 | 0.23 µM | > 50 µM | IC50 (Platelet): 1 µM; viability at 24 h, 100 µM (in vitro [6]): > 70%; hemolysis at 3 h, 100 µM (in vitro [7]): 0% |
| CCCOc1ccc(-c2noc(C)c2-c2ccc(OCCC)cc2)cc1 | > 50 µM | > 50 µM | – |
| Cc1onc(-c2ccc(OC(C)(C)C)cc2)c1-c1ccc(OC(C)(C)C)cc1 | > 50 µM | > 50 µM | – |
| CCCOc1ccc(-c2c(-c3ccc(OC)cc3)noc2C)cc1 | 1.3 µM | > 50 µM | hemolysis at 3 h, 100 µM (in vitro [7]): 0% |
| CCOc1ccc(-c2noc(CC(=O)O)c2-c2ccc(OCC)cc2)cc1 | 0.12 µM | > 50 µM | IC50 (Platelet): 0.7 µM; viability at 24 h, 100 µM (in vitro [6]): > 70%; hemolysis at 3 h, 100 µM (in vitro [7]): 0% |
| CCOc1ccc(-c2c(-c3ccc(OC)cc3)noc2CC(=O)O)cc1 | 0.12 µM | > 50 µM | IC50 (Platelet): 29.5 µM; viability at 24 h, 100 µM (in vitro [6]): > 70%; hemolysis at 3 h, 100 µM (in vitro [7]): 0% |

| SMILES | IC50 [3] | IC50 [4] | further results |
| --- | --- | --- | --- |
| CCCOc1ccc(-c2c(-c3ccc(OC)cc3)noc2CC(=O)O)cc1 | 0.079 µM | 6.9 µM | IC50 (Platelet): 72.1 µM; viability at 24 h, 100 µM (in vitro [6]): > 70%; hemolysis at 3 h, 100 µM (in vitro [7]): 0% |
| CCCCOc1ccc(-c2c(-c3ccc(OC)cc3)noc2CC(=O)O)cc1 | 0.32 µM | 0.45 µM | – |
| Cc1onc(-c2ccc(Oc3ccccc3)cc2)c1-c1ccc(Oc2ccccc2)cc1 | > 50 µM | > 50 µM | – |
| C=CCc1cccc(-c2nc(-c3ccccc3Cl)c(-c3ccccc3Cl)[nH]2)c1OC(C)=O | – | – | IC50 [5]: > 100 µM; IC50 [8]: > 100 µM |
| CCOc1ccc(-c2c(-c3ccc(OC)cc3)noc2C)cc1 | 0.046 µM | > 50 µM | IC50 (Platelet): 2.5 µM; viability at 24 h, 100 µM (in vitro [6]): 64% |
| CCOc1ccc(N)cc1C(=O)Nc1cccc(C(F)(F)F)c1 | – | – | IC50 [1]: 3.2 µM; IC50 [2]: > 100 µM |
| COc1ccc(-c2noc(C)c2-c2ccc(OCc3ccccc3)cc2)cc1 | > 50 µM | > 50 µM | – |
| COc1ccc(-c2noc(CC(=O)O)c2-c2ccc(OC(C)(C)C)cc2)cc1 | > 50 µM | > 50 µM | – |
| COc1ccc(-c2noc(CC(=O)O)c2-c2ccc(OCc3ccccc3)cc2)cc1 | 0.45 µM | > 50 µM | IC50 (Platelet): > 100 µM; viability at 24 h, 100 µM (in vitro [6]): > 70%; hemolysis at 3 h, 100 µM (in vitro [7]): 0% |
| COc1ccc(-c2noc(C)c2-c2ccc(Oc3ccccc3)cc2)cc1 | > 50 µM | > 50 µM | – |
| CCCOc1ccc(-c2noc(CC(=O)O)c2-c2ccc(OCCC)cc2)cc1 | > 50 µM | 3.6 µM | – |
| CC(C)(C)Oc1ccc(-c2noc(CC(=O)O)c2-c2ccc(OC(C)(C)C)cc2)cc1 | > 50 µM | > 50 µM | – |
| COc1ccc(-c2noc(C)c2-c2ccc(OC(C)(C)C)cc2)cc1 | > 50 µM | > 50 µM | – |
| COc1ccc(-c2noc(CC(=O)O)c2-c2ccc(Oc3ccccc3)cc2)cc1 | > 50 µM | > 50 µM | – |
| CC(=O)Oc1ccccc1C(=O)O [ASPIRIN] | – | – | IC50 (Platelet): 36.2 µM |
| COc1ccc(-c2nc(C(=O)N3CCN(C)CC3)sc2-c2ccc(OC)cc2)cc1 [FR-122047] | – | – | IC50 [1]: 0.028 µM |
